Measured values taken from patent US10526278B2, “Inhibitors of quorum sensing receptor LasR” (priority 2017, dated 2020).

Tests used:
LasR [1] = biological target: T1, LasR (Pseudomonas aeruginosa, UniProt P25084); format: cell-based; settings: measured vs 25 nM OdDHL
Excerpt: (§1) Methods for assessing LasR activation and inhibition are known in the art. More specifically methods as described in Moore et al. 2015 are used herein to assess activation and inhibition.
IC50 is the concentration of an inhibitor where the response or binding is reduced by half (half maximal inhibitory concentration).

P. aeruginosa PAO1 [2] = experiment: Elastase B production in P. aeruginosa PAO1 culture supernatants (elastin-Congo red); format: cell-based, Pseudomonas aeruginosa; settings: compound alone 100 μM; % elastase relative to DMSO; FIG. 12A
Experimental: FIG. 12A is a graph comparing inhibition of elastase (as % relative to DMSO) for certain compounds of the invention. The amount of indicated compound added was 100 μM. M64 alone or in combination was added in the amount of 20 μM. The assay is conducted as described in Welsh et al. (2016) for compounds shown as well as certain compounds in combination with compound M-64 (Starkey, M. et al. (2014)):
The amount of elastase B in P. aeruginosa culture supernatants was measured following a reported protocol (Welsh et al., 2017 and Geske et al., 2007b) with modifications. A 10 mL overnight culture of P. aeruginosa PAO1 was grown for 16 hr. An inoculating culture was prepared by diluting the overnight culture 1:100 into freshly prepared assay medium, and 2 mL aliquots of this subculture were added to each test tube (0.5% DMSO, final). The cultures were grown for 17 hr, and the final cell density measured by reading OD600. […]
To quantify elastase B activity, the undigested elastin was pelleted by centrifugation of the assay plate at […] for 10 min, after which […] of the supernatant was transferred to a new, clear 96-well plate, and the absorbance at 490 nm measured. Media background absorbance (measured from a “no bacteria” control) was subtracted, the resulting values growth normalized by dividing by the final OD600, and the data plotted relative to a DMSO-treated positive control.

P. aeruginosa PAO1 [3] = settings: earlier reports; cited from earlier work
LasR [4] = biological target: T1, LasR; experiment: LasR activation (agonism) assay, methods of Moore et al. 2015; format: cell-based; settings: at high concentrations; FIGS. 8B, 9B, 10B
Excerpt: as §1
FIGS. 8A and 8B compare % LasR inhibition (8A) with % LasR activation (8B) for control compound V-06-018.
FIGS. 9A and 9B compare % LasR inhibition (9A) with % LasR activation (9B) for compound 33.
FIGS. 10A and 10B compare % LasR inhibition (10A) with % LasR activation (10B) for compound 32 (thiophene analog of compound 33).

T1 sequence (P25084 whole entry): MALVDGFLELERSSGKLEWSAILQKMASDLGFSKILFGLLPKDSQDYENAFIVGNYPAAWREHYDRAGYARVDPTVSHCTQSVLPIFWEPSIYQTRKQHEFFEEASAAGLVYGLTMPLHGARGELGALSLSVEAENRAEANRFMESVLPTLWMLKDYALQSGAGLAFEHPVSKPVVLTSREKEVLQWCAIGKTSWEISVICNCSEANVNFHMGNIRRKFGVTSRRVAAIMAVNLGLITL

For `CCCCCCCCCC(=O)CC(=O)Nc1ccccc1` [Compound V-06-018], the “Maximum Inhibition (95% CL)” value (LasR [1]) was 87 (91-85) %, the IC50 (LasR [1]; read-out: IC50 (95% CL)) was 2000 nM and the “inhibition of production of virulence factor elastase” value (P. aeruginosa PAO1 [2]) was “little or no inhibition”. The “inhibition of elastase production (previously shown)” value (P. aeruginosa PAO1 [3]) was “previously been shown to inhibit elastase production” and the “% LasR activation” value (LasR [4]) was “does not exhibit LasR activation”.
